Measured values published in US6046212A, “Chalcone derivatives and drugs containing the same” (Kowa Co., Ltd., priority 1996, dated 2000).
Counter-ions that a name gives are not always drawn. Like-named read-outs stand apart in the source and are kept apart here.

Assays:
Leukotriene D4 Receptor = target: T1, Leukotriene D4 Receptor (Cavia porcellus, UniProt Q2NNR5); assay: Leukotriene D4 Receptor Binding Inhibition Test; parameters: species or system guinea pig; conditions: for inhibition at 10 µM: read-out: LTD4 receptor, inhibition rate (%) at a high concentration
T1 construct: guinea pig pulmomembranous protein; from tissue; host or cells: guinea pig lung membranes
T1 sequence (Q2NNR5 1-340): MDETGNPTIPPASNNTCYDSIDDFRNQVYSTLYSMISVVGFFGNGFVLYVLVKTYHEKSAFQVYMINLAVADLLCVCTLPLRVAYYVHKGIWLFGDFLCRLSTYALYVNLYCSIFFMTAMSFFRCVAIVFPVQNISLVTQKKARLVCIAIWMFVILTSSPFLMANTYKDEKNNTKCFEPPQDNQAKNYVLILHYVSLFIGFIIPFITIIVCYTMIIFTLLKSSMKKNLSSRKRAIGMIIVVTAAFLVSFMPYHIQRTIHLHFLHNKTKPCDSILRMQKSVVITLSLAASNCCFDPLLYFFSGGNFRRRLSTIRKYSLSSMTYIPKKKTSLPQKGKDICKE
Protocol: An ice-cold tris hydrochloride/sodium chloride buffer (10 mM/100 mM, pH 7.5) was added to terminate the reaction, followed by immediate filtration through a Wattman CF/C filter. The filter was washed twice with 20 ml aliquots of the ice-cold buffer. The radio-activity of the residue was measured by a liquid scintillation counter. […] Using the Cheng-Prusoff formula, a dissociation constant (KD) was calculated from the IC50.

[1] = tested on: isolated guinea pig ileum; assay: Antileukotriene D4 Action (In vitro Test): isotonic contractive response of isolated ileum to leukotriene D4; assay type: cell-based; conditions: Cavia porcellus, 0.5 h, Krebs buffer 37° C., 30 minutes incubation with test compound, read-out: Anti-LTD4 action (IC50 value)
Protocol: Antileukotriene D4 Action (In vitro Test)
An isolated guinea pig ileum was cut into about 2 cm lengths. Each ileum piece was suspended in a 20-ml organ bath filled with the Krebs buffer. […] The Krebs buffer was controlled at 37° C., through which a mixed gas (95%O2 -5%CO2) was bubbled. First, leukotriene D4 was added to an organ bath to measure its dose-response. After the ileum piece was washed several times with the buffer, a test compound (will be identified by its example number; this will apply likewise hereinafter) of a predetermined specific concentration was added.

airway constriction = conditions: cited from earlier work
[2] = read-out: LTD4 receptor, dissociation constant KD

O=C(O)c1ccc(O)c(C(=O)/C=C/c2ccccc2OCc2ccc3ccccc3n2)c1 [Example 3, 5'-Carboxy-2'-hydroxy-2-[(2-quinolyl)methoxy]chalcone]
inhibition at 10 µM (Leukotriene D4 Receptor): 18%

O=C(O)c1ccc(O)c(C(=O)/C=C/c2ccc(OCc3ccccc3)cc2)c1 [Example 4, 4-Benzyloxy-5'-carboxy-2'-hydroxychalcone]
inhibition at 10 µM (Leukotriene D4 Receptor): 23%

O=C(O)c1ccc(O)c(C(=O)/C=C/c2ccccc2OCc2ccccc2)c1 [Example 6, 2-Benzyloxy-5'-carboxy-2'-hydroxychalcone]
inhibition at 10 µM (Leukotriene D4 Receptor): 0%

O=C(O)c1cccc(C(=O)/C=C/c2ccc(OCc3ccc4ccccc4n3)cc2)c1O [Example 7, 3'-Carboxy-2'-hydroxy-4-[(2-quinolyl)methoxy]chalcone]
Kd (Leukotriene D4 Receptor; [2]): 307 nM

O=C(O)c1cc(F)cc(C(=O)/C=C/c2ccc(OCc3ccc4ccccc4n3)cc2)c1O [Example 8, 3'-Carboxy-5'-fluoro-2'-hydroxy-4-[(2-quinolyl)methoxy]chalcone]
Kd (Leukotriene D4 Receptor; [2]): 396 nM

O=C(O)c1cc(Cl)cc(C(=O)/C=C/c2ccc(OCc3ccc4ccccc4n3)cc2)c1O [Example 9, 3'-Carboxy-5'-chloro-2'-hydroxy-4-[(2-quinolyl)methoxy]chalcone]
Kd (Leukotriene D4 Receptor; [2]): 732 nM

CCOC(=O)c1ccc(O)c(C(=O)C=Cc2ccc(OCc3ccc4ccccc4n3)cc2)c1 [Example 17]
inhibition at 10 µM (Leukotriene D4 Receptor): 16%

O=C(/C=C/c1ccc(OCc2ccc3ccccc3n2)cc1)c1cc(-c2nnn[nH]2)ccc1O [Example 19, 2'-Hydroxy-4-[(2-quinolyl)-methoxy]-5'-(5-tetrazolyl)-chalcone]
IC50 [1]: 67 nM

CCOCCn1c(COc2ccc(C=CC(=O)c3cc(-c4nn[nH]n4)ccc3O)cc2)nc2ccccc21 [Example 23]
IC50 [1]: 480 nM

O=C(/C=C/c1ccc(OCc2ccc3ccccc3c2)cc1)c1cc(-c2nnn[nH]2)ccc1O [Example 26, 2'-Hydroxy-4-(2-naphthyl-methoxy)-5'-(5-tetrazolyl)-chalcone]
inhibition at 10 µM (Leukotriene D4 Receptor): 4%

COc1ccc(C(=O)O)cc1C(=O)/C=C/c1ccc(OCc2ccc3ccccc3n2)cc1 [Example 29, 5'-Carboxy-2'-methoxy-4-[(2-quinolyl)methoxy]chalcone]
IC50 [1]: 290 nM

CCCCOc1ccc(C(=O)O)cc1C(=O)C=Cc1ccc(OCc2ccc3ccccc3n2)cc1 [Example 32, 2'-n-Butoxy-5'-carboxy-4-(2-quinolylmethoxy)chalcone.HCl]
inhibition at 10 µM (Leukotriene D4 Receptor): 41%

N#Cc1cccc(C(=O)/C=C/c2ccc(OCc3ccc4ccccc4n3)cc2)c1 [Example 35, 3'-cyano-4-(2-quinolylmethoxy)-chalcone]
inhibition at 10 µM (Leukotriene D4 Receptor): 8%

N#Cc1cccc(C(=O)/C=C/c2cccc(OCc3ccc4ccccc4n3)c2)c1 [Example 36, 3'-Cyano-3-(2-quinolylmethoxy)-chalcone]
inhibition at 10 µM (Leukotriene D4 Receptor): 6%

CCOCCn1c(COc2cccc(C=CC(=O)c3ccc(C(=O)O)cc3O)c2)nc2ccccc21 [Example 37, 4'-Carboxy-3-[(1-ethoxyethyl-benzimidazol-2-yl)methoxy]-2'-hydroxychalcone.HCl]
inhibition at 10 µM (Leukotriene D4 Receptor): 26%

O=C(O)c1cccc(C(=O)/C=C/c2cccc(C=Cc3ccc4ccccc4n3)c2)c1O [Example 40, 3'-carboxy-2'-hydroxy-3-[(2-quinolyl)-ethenyl]chalcone]
IC50 [1]: 120 nM

N#Cc1ccc(O)c(C(=O)/C=C/c2cccc(OCc3ccc4ccccc4n3)c2)c1 [Example 58, 5'-Cyano-2'-hydroxy-3-[(2-quinolyl)methoxy]chalcone]
inhibition at 10 µM (Leukotriene D4 Receptor): 38%

CCCCC/C=C\C\C=C/C=C/C=C/[C@@H](SC[C@H](NC(=O)CC[C@H](N)C(=O)O)C(=O)NCC(=O)O)[C@@H](O)CCCC(=O)O [LTC4]
effects on airway constriction relative to histamine (airway constriction; when inhaled, compared with histamine): 1,000 times

CCCCC/C=C\C\C=C/C=C/C=C/[C@@H](SC[C@H](N)C(=O)O)[C@@H](O)CCCC(=O)O [LTE4]
duration of airway constriction (airway constriction; compared with that caused by the other leukotrienes): long lasting | activity compared with the other leukotrienes (airway constriction; compared with the other leukotrienes): lower activities

[^3 H]leukotriene D4 [reference compound]
slope of Hill plot (Leukotriene D4 Receptor; [^3 H]leukotriene D4 binding): 0.99 | Kd (Leukotriene D4 Receptor; read-out: dissociation constant (KD) of [^3 H]leukotriene D4, radioligand, guinea pig pulmomembranous protein): 0.262 nM
